# Source: patent US11213563B2, “Polypeptide and use thereof” (Genoimmune Therapeutics Co., Ltd., priority 2016, dated 2022)
# How the values were obtained:
# CD8^+ T cells = test: In vitro stimulation of CD8+ T cells by polypeptide-loaded mature DCs, cell counting; assay type: cell-based, human; conditions: CD8+ T cells with polypeptide-specific mature DCs, day 10; 2.5 × 10^6 cells before incubation
# Protocol: Peripheral blood mononuclear cells (PBMCs) in 100 mL peripheral blood obtained from a HLA-A0201-positive healthy volunteer were isolated using the Ficoll solution, where CD8^+ T cells among the PBMCs were isolated with CD8 magnetic beads, and monocytes among the PBMCs were incubated by an adherence method.
# The CD8^+ T cells from the volunteer in a well were incubated with the mature DCs obtained, along with IL-21, with addition of IL-2 and IL-7 after 3 days' culture and addition IL-2 and IL-7 again at day 5 and day 7 respectively, after which the collected mixture of cells were counted on day 10, for use in the next enzyme-linked immune-spot assay (ELISPOT) and lactate dehydrogenase (LDH) assay.
# T2 cells = test: LDH release assay of CD8+ T cell killing activity; assay type: cell-based, human; parameters: Killing efficiency: concentration or dose not given beside the values; conditions: for Killing efficiency: 4 hours; for Killing of T2 cells loaded with the mutant polypeptide by activated T cells / Killing of T2 cells loaded with the wild-type polypeptide by activated T cells: ratio of effector cells to target cells of 1:1 or 1:10 (so in the source)
# Protocol: The mixture of cells collected in the example 3 were incubated with the T2 cells loaded with the mutant polypeptide (depicted in […], SEQ ID NO:1) or the wild-type polypeptide (depicted in […], SEQ ID NO:7), or the T2 cells without polypeptide respectively for 4 hours; after which […], cell supernatant collected from each well was individually added into 50 μL substrate mixture of LDH for catalyzation of the LDH substrate, and the absorbance at wavelengths of 490 nm and 680 nm (as a reference) is measured, where a maximum release well, a volume correction well, a medium alone well, a spontaneous release well of effector cell and a spontaneous release well of target well as different control wells, as well effector cells (T cells) and target cells (T2 cell) in different ratios as experiment wells are set in triplicate.
# The killing efficiency of CD8^+ T cells to T2 cells is calculated by the following formula: Killing efficiency (%)=(experiment well−spontaneous release well of effector cell−spontaneous release well of target well+medium alone well)/(maximum release well of target well-volume correction well-spontaneous release well of target well+medium alone well)×100%.
# [1] = tested on: human non-small cell lung adenocarcinoma cell line H2087-polypeptide FILDGLYSV; test: Polypeptide + Freund's adjuvant vaccine in subcutaneous tumor-modeled NOD/SCID mice; assay type: in vivo; conditions: adjuvant+polypeptide 100 μg s.c., 4 immunizations; vs adjuvant alone and adjuvant+wild-type polypeptide groups
# Protocol: (§1) After isolated with Ficoll solution from 600 to 900 ml anticoagulant peripheral blood from a healthy volunteer, the collected PBMCs in a concentration of 2×10^7 cells/0.5 ml were intraperitoneally injected into each of 300 NOD SCID mice without immune leakage, so as to reconstruct a human immune system in the NOD SCID mice, with the mice after 4 weeks selected for subsequent inoculation of the human non-small cell lung adenocarcinoma cell line H2087-polypeptide […] obtained in 6.2.
# The human non-small cell lung adenocarcinoma cell line H2087-polypeptide […] (SEQ ID NO:1) obtained in 6.2 was incubated in DMEM medium containing 10% fetal calf serum, 100 U/mL penicillin and 100 U/mL streptomycin in an incubator under 37° C. and 5% CO2, and then the cells were centrifuged at 3000 rpm for collection. The collected cells were washed with sterile physiological saline three times, and then diluted appropriately. To 40 μl tumor cell suspension, 10 μl 0.4% […] was added for staining, subsequently the tumor cell suspension in a concentration of 1×10^8 cells/ml was prepared after counting under microscope. 100 μl of the tumor cell suspension was inoculated into each of the NOD/SCID mice by subcutaneous injection at 4 weeks post immune reconstruction in 6.3, with daily observation of the presence/absence of infection at inoculation sites, the increase/decrease of tumor size (in the case of presence of a tumor), and measurement of the major axis (a) and the minor axis (b) of a tumor by a vernier caliper every 2 or 3 days (where the tumor size=a×b×b/2). After 7 days from inoculation, a tumor in a size of rice grain was touchable at the inoculation site. After that, the subcutaneous tumor-modeled NOD/SCID mice (modeled with H2087-polypeptide […] (SEQ ID NO:1)) were treated with a polypeptide+complete Freund's adjuvant vaccine, a polypeptide+DCs vaccine, a lentivirus-infected DCs vaccine and a DC-CTL vaccine respectively, with the tumor size and mouse survival rate observed and recorded every 2 days.
# The subcutaneous tumor-modeled NOD/SCID mice obtained in 6.4 of the example 6 were divided into 8 groups randomly as below, with 6 mice per group.
# After 2 weeks, differently-immunized mice in 7 groups received respective same-dosage booster immunizations at 2 week interval for 4 times in total, with incomplete Freund's adjuvant for the latter three immunizations.
# The general characteristics (including mental state, activity, response, diet, body weight and tumor growth) of the mice were observed daily, where the major axis (a) and the minor axis (b) of a tumor were measured by a vernier caliper every 2 days for calculation of tumor size according to a formula of a×b×b/2, where the mouse survival rate in a time period is calculated by the following formula: Survival rate=the number of survival mice/(the number of survival mice+the number of dead mice)×100%.
# [2] = tested on: human non-small cell lung adenocarcinoma cell line H2087-polypeptide FILDGLYSV; test: Polypeptide-specific DC-CTL vaccine in subcutaneous tumor-modeled NOD/SCID mice; assay type: in vivo; conditions: CTLs stimulated by DCs loaded with the polypeptide, i.v. 1×10^8 cells/mouse; vs wild-type CTL group
# Protocol: as §1
# The human non-small cell lung adenocarcinoma cell line H2087-polypeptide […] (SEQ ID NO:1) obtained in 6.2 was incubated in DMEM medium containing 10% fetal calf serum, 100 U/mL penicillin and 100 U/mL streptomycin in an incubator under 37° C. and 5% CO2, and then the cells were centrifuged at 3000 rpm for collection. The collected cells were washed with sterile physiological saline three times, and then diluted appropriately. To 40 μl tumor cell suspension, 10 μl 0.4% […] was added for staining, subsequently the tumor cell suspension in a concentration of 1×10^8 cells/ml was prepared after counting under microscope. 100 μl of the tumor cell suspension was inoculated into each of the NOD/SCID mice by subcutaneous injection at 4 weeks post immune reconstruction in 6.3, with daily observation of the presence/absence of infection at inoculation sites, the increase/decrease of tumor size (in the case of presence of a tumor), and measurement of the major axis (a) and the minor axis (b) of a tumor by a vernier caliper every 2 or 3 days (where the tumor size=a×b×b/2).
# The number of T lymphocytes was counted at day 0, 7, 14 and 21 post incubation, for calculation of cell proliferation index (PI), where PI=cell number after proliferation/cell number seeded. The cytotoxic T lymphocytes (CTLs) were harvested at day 21 post incubation, which were suspended in 0.2 ml physiological saline, and then injected intravenously to the subcutaneous tumor-modeled NOD/SCID mice via the tail in an amount of 1×10^8 cells/mouse. The vital signs of the mice were observed after administration, and the major axis (a) and the minor axis (b) of a tumor were measured by a vernier caliper every 2 days for calculation of tumor size.
# [3] = T cells activated by listed polypeptide + T2 cells loaded with mutant FILDGLYSV, effector:target 1:1
# [4] = T cells activated by listed polypeptide + T2 cells loaded with mutant FILDGLYSV, effector:target 10:1
# [5] = T cells activated by listed polypeptide + T2 cells loaded with wild-type FILDGSYSV, effector:target 1:1
# [6] = T cells activated by listed polypeptide + T2 cells loaded with wild-type FILDGSYSV, effector:target 10:1
Sequence,Total number of cells in the well after incubation (CD8^+ T cells),Killing efficiency (T2 cells; [3]),Killing efficiency (T2 cells; [4]),Killing efficiency (T2 cells; [5]),Killing efficiency (T2 cells; [6]),Killing of T2 cells loaded with the mutant polypeptide by activated T cells (T2 cells),Killing of T2 cells loaded with the wild-type polypeptide by activated T cells (T2 cells),Mouse survival period [1],Tumor growth [1],Mouse survival period [2],Tumor growth [2]
"FILDGLYSL [mutant polypeptide's variant, Leucine at position 9]",1.35 × 10^7,8.09%,38.60%,3.12%,4.71%,capable of killing,could not kill,prolonging mouse survival period effectively,inhibiting tumor growth,prolonging mouse survival period significantly,inhibiting tumor growth
"FILDGLYSV [mutant polypeptide from COL21A1, Serine at position 45 mutated into Leucine]",1.22 × 10^7,7.33%,37.39%,2.07%,4.93%,capable of killing,could not kill,prolonging mouse survival period effectively,inhibiting tumor growth,prolonging mouse survival period significantly,inhibiting tumor growth
"FLLDGLYSL [mutant polypeptide's variant, Leucine at positions 2 and 9]",1.03 × 10^7,7.05%,35.15%,3.56%,6.21%,capable of killing,could not kill,prolonging mouse survival period effectively,inhibiting tumor growth,prolonging mouse survival period significantly,inhibiting tumor growth
"FLLDGLYSV [mutant polypeptide's variant, Leucine at position 2]",1.42 × 10^7,8.38%,39.16%,2.85%,5.43%,capable of killing,could not kill,prolonging mouse survival period effectively,inhibiting tumor growth,prolonging mouse survival period significantly,inhibiting tumor growth
FMLDGLYSL,1.66 × 10^7,8.96%,40.13%,3.13%,5.83%,capable of killing,could not kill,prolonging mouse survival period effectively,inhibiting tumor growth,prolonging mouse survival period significantly,inhibiting tumor growth
FMLDGLYSV,1.71 × 10^7,9.15%,42.10%,2.37%,5.63%,capable of killing,could not kill,prolonging mouse survival period effectively,inhibiting tumor growth,prolonging mouse survival period significantly,inhibiting tumor growth
